Here are results for 15 compounds from patent US8980879B2 (AbbVie Inc., priority 2013, dated 2015).

One assay has as its target T1, BRD4 (BDI_K57-E168) (Homo sapiens, UniProt O60885).
T1 construct: BD1: amino acids K57-E168; made in house
In words: TR-FRET bromodomain binding assay, BRD4 first bromodomain. Particulars: His-tagged BD1, 100 nM Alexa647 probe; assay protocol D or F as given per row in c1; Ki calculated from IC50. Here is the method: (§1) A time-resolved fluorescence resonance energy transfer (TR-FRET) assay was used to determine the affinities of compounds of the Examples listed in Table 1 for each bromodomain of BRD4. His-tagged first (BD1: amino acids K57-E168) and second (BD2: amino acids E352-E168) bromodomains of BRD4 were expressed and purified. An Alexa647-labeled BET-inhibitor was used as the fluorescent probe in the assay.
(§2) Compound dilution series were prepared in DMSO via an approximately 3-fold serial dilution from one of the following:
(§3) Assay method D: 500 μM-8.5 nM
(§4) Assay method E: 0.47 mM to 7.8 nM
(§5) Assay method F: 250 μM-4.2 nM
(§6) Assay method G: 0.047 mM to 0.78 nM
(§7) or 5-fold serial dilution from one of the following:
(§8) Assay method A: 2.5 mM-800 nM
(§9) Assay method B: 2.5 mM-797 nM
(§10) For Assay methods A, C, D, and F: Compounds were then diluted 6:100 in assay buffer (20 mM Sodium Phosphate, pH 6.0, 50 mM NaCl, 1 mM Ethylenediaminetetraacetic acid, 0.01% Triton X-100, 1 mM DL-Dithiothreitol) to yield 3× working solutions. Six microliters (μL) of the working solution was then transferred to white, low-volume assay plates (Costar #3673). A 1.5× assay mixture containing His-tagged bromodomain, Europium-conjugated anti-His antibody (Invitrogen PV5596) and the Alexa-647-conjugated probe molecule was also prepared. Twelve μL of this solution were added to the assay plate to reach a final volume of 18 μL.
(§11) For Assay methods B, E, and G: Compound dilutions were added directly into white, low-volume assay plates (Perkin Elmer Proxiplate 384 Plus#6008280) using a Labcyte Echo in conjunction with Labcyte Access and Thermo Multidrop CombinL robotics. Compounds were then suspended in eight microliters (μL) of assay buffer (20 mM Sodium Phosphate, pH 6.0, 50 mM NaCl, 1 mM Ethylenediaminetetraacetic acid disodium salt dihydrate, 0.01% Triton X-100, 1 mM DL-Dithiothreitol) containing His-tagged bromodomain, Europium-conjugated anti-His antibody (Invitrogen PV5596) and Alexa-647-conjugated probe.
(§12) The final concentration of 1× assay mixture for assay methods A, B, C, D, E, F, and G contains 2% DMSO, 8 nM His-tagged bromodomain, 1 nM Europium-conjugated anti-His-tag antibody and 100 nM or 30 nM probe (for BDI or BDII, respectively) and compound concentration in the range of: 50 μM-16 nM for method A, 49.02 μM-15.63 nM for method B, 25 μM-423 pM for method C, 10 μM-169 pM for method D, 9.19 μM 150 pM for method E, 5 μM-85 pM for method F, and 0.92 μM-15 pM for method G.
(§13) After a one-hour equilibration at room temperature, TR-FRET ratios were determined using an Envision multilabel plate reader (Ex 340, Em 495/520).
(§14) TR-FRET data were normalized to the means of 24 no-compound controls (“high”) and 8 controls containing 1 μM un-labeled probe (“low”). Percent inhibition was plotted as a function of compound concentration and the data were fit with the 4 parameter logistic equation to obtain IC50s Inhibition constants (Ki) were calculated from the IC50s, probe Kd and probe concentration. Typical Z′ values were between 0.65 and 0.75. The minimum significant ratio was determined to evaluate assay reproducibility (Eastwood et al., (2006) J Biomol Screen, 11: 253-261). The MSR was determined to be 2.03 for BDI and 1.93 for BDII, and a moving MSR (last six run MSR overtime) for both BDI and BDII was typically <3.

The target of a further assay is T2, BRD4 (BDII_E352-M457) (Homo sapiens, UniProt O60885).
T2 construct: protocol; made in house
Nature of the assay: TR-FRET bromodomain binding assay, BRD4 second bromodomain. Here is the method: as §1, §2, §3, §4, §5, §6, §7, §8, §9, §10, §11, §12, §13, §14

Assay [1] concerns breast cancer cell line MX-1. In words: MX-1 cell line proliferation assay. The class given is cell-based. The settings on record: Homo sapiens, MX1; MX-1 cells, 3-day (72 h) proliferation, Cell Titer Glo; read-out: Cellular proliferation: EC50. The method, then:
MX-1 Cell Line Proliferation Assay
The impact of compounds of the Examples on cancer cell proliferation was determined using the breast cancer cell line MX-1 (ATCC) in a 3-day proliferation assay and the data are reported in Table 1. MX-1 cells were maintained in RPMI 1640 medium (Sigma) supplemented with 10% FBS at 37 C.° and an atmosphere of 5% CO2. For compound testing, MX-1 cells were plated in 96-well black bottom plates at a density of 5000 cells/well in 90 μL of culture media and incubated at 37° overnight to allow cell adhesion and spreading. Compound dilution series were prepared in DMSO via a 3-fold serial dilution from 3 mM to 0.1 μM. The DMSO dilution series were then diluted 1:100 in phosphate buffered saline, and 10 μL of the resulted solution were added to the appropriate wells of the MX-1 cell plate. The final compound concentrations in the wells were 3, 1, 0.3, 0.1, 0.03, 0.01, 0.003, 0.001, 0.0003 and 0.0001 μM.
Luminescence readings from the Cell Titer Glo assay were normalized to the DMSO treated cells and analyzed using the GraphPad Prism software with sigmoidal curve fitting to obtain EC50s. The minimum significant ratio (MSR) was determined to evaluate assay reproducibility (Eastwood et al., (2006) J Biomol Screen, 11: 253-261). The overall MSR was determined to be 2.1 and a moving MSR (last six run MSR overtime) has been <2.

As to `Cn1cc2c3c(c[nH]c(=O)c31)CNc1ccc(S(C)(=O)=O)cc1-2` [Example 1], the Ki was 1.35 µM at BRD4 (BDI_K57-E168) and 2.82 µM at BRD4 (BDII_E352-M457). The EC50 in assay [1] was more than 3 µM.

Consider `Cn1cc2c3c(c[nH]c(=O)c31)CN(CC1CC1)c1ccc(S(C)(=O)=O)cc1-2` [Example 2], for which the Ki is 0.021 µM at BRD4 (BDI_K57-E168) and 0.43 µM on BRD4 (BDII_E352-M457). In addition, the EC50 in assay [1] came out at 0.144 µM.

Regarding `Cn1cc2c3c(c[nH]c(=O)c31)CN(C(=O)C1CC1)c1ccc(CS(C)(=O)=O)cc1-2` [Example 6], the figures for the Ki on BRD4 (BDI_K57-E168) and on BRD4 (BDII_E352-M457) were 0.00353 µM and 0.00244 µM, respectively. In addition, the EC50 in assay [1] is 0.0164 µM.

Regarding `Cn1cc2c3c(c[nH]c(=O)c31)CN(C(=O)c1ccccc1)c1ccc(CS(C)(=O)=O)cc1-2` [Example 7], the Ki at BRD4 (BDI_K57-E168) is 0.0591 µM; on BRD4 (BDII_E352-M457), 0.0975 µM. Also, the EC50 in assay [1] came out at 0.273 µM.

As to `COCCC1c2c[nH]c(=O)c3c2c(cn3C)-c2cc(CS(C)(=O)=O)ccc2N1c1ccc(F)cc1` (stereo not drawn) [Example 8], the inhibition constant Ki at BRD4 (BDI_K57-E168) was 0.00581 µM; on BRD4 (BDII_E352-M457) it was 0.0252 µM. Also, the EC50 in assay [1] came to 0.0466 µM.

On to `COC(=O)CCC1c2c[nH]c(=O)c3c2c(cn3C)-c2cc(CS(C)(=O)=O)ccc2N1c1ccc(F)cc1` (stereo not drawn) [Example 9], for which the values for the Ki at BRD4 (BDI_K57-E168) and at BRD4 (BDII_E352-M457) were 0.00629 µM and 0.0182 µM, respectively. Besides, in assay [1], the EC50 was 0.805 µM.

Take `Cn1cc2c3c(c[nH]c(=O)c31)C(CC1CCOCC1)N(c1ccc(F)cc1)c1ccc(CS(C)(=O)=O)cc1-2` (stereo not drawn) [Example 10]: the Ki at BRD4 (BDI_K57-E168) is 0.00823 µM; at BRD4 (BDII_E352-M457), 0.0574 µM. Besides, in assay [1], the EC50 was determined as 0.0816 µM.

Consider `Cn1cc2c3c(c[nH]c(=O)c31)CN(CC1CC1)c1ccccc1-2` [Example 11], for which the Ki on BRD4 (BDI_K57-E168) is 0.00714 µM; at BRD4 (BDII_E352-M457) it was 0.0189 µM. For the same compound, in assay [1], the EC50 is 0.0568 µM.

For `CCS(=O)(=O)Nc1ccc2c(c1)-c1cn(C)c3c(=O)[nH]cc(c13)CN2c1ccc(F)cc1` [Example 12], the figures for the Ki on BRD4 (BDI_K57-E168) and on BRD4 (BDII_E352-M457) were 0.00218 µM and 0.0043 µM, respectively. Besides, the EC50 in assay [1] was found to be 0.00563 µM.

Take `Cn1cc2c3c(c[nH]c(=O)c31)CN(c1ccc(F)cc1)c1ccc(Cl)cc1-2` [Example 13]: the inhibitory constant (Ki) is 0.00274 µM on BRD4 (BDI_K57-E168) and 0.0341 µM at BRD4 (BDII_E352-M457). Also, the EC50 in assay [1] is 0.072 µM.

For the compound `Cn1cc2c3c(c[nH]c(=O)c31)CN(c1ccc(F)cc1)c1ncc(N)cc1-2` [Example 14], the Ki was 0.003 µM at BRD4 (BDI_K57-E168) and 0.00369 µM at BRD4 (BDII_E352-M457). In addition, in assay [1], the EC50 was 0.00278 µM.

On to `CCOC(=O)C1c2c[nH]c(=O)c3c2c(cn3C)-c2cc(CS(C)(=O)=O)ccc2N1c1ccc(F)cc1` (stereo not drawn) [Example 15], for which the values for the Ki at BRD4 (BDI_K57-E168) and at BRD4 (BDII_E352-M457) were 0.00914 µM and 0.0269 µM, respectively. The EC50 in assay [1] worked out at 0.0363 µM.

Take `Cn1cc2c3c(c[nH]c(=O)c31)CN(c1ccc(F)cc1)c1ncc(F)cc1-2` [Example 16]: the Ki at BRD4 (BDI_K57-E168) is 0.00079 µM; at BRD4 (BDII_E352-M457), 0.00507 µM. In addition, the EC50 in assay [1] stood at 0.00555 µM.

For `Cn1cc2c3c(c[nH]c(=O)c31)CN(c1ccc(F)cc1)c1ncc(NC(=O)Cc3cc(F)ccc3Cl)cc1-2` [Example 17], the Ki was 0.00143 µM on BRD4 (BDI_K57-E168) and 0.00248 µM on BRD4 (BDII_E352-M457). In assay [1], the EC50 was determined as 0.0199 µM.

As to `Cc1cc(CC(=O)Nc2cnc3c(c2)-c2cn(C)c4c(=O)[nH]cc(c24)CN3c2ccc(F)cc2)nn1C` [Example 18], the inhibition constant (Ki) at BRD4 (BDI_K57-E168) is 0.00182 µM; at BRD4 (BDII_E352-M457), 0.00346 µM. Further, in assay [1], the EC50 came out at 0.00702 µM.
